Assay results: patent US9789114B2, “Compounds as HIF-1α inhibitors and manufacturing process thereof” (DONGGUK UNIVERSITY INDUSTRY-ACADEMIC COOPERATION FOUNDATION, priority 2011, dated 2017)
Where two headings read alike, the source gives them in different places.

How the values were obtained:
[1] = test system: HCT116 colon cancer cells; test: In vivo anti-cancer activity by oral administration, HCT116 tumor in nude mice; set-up: species or system BALB/c nu/nu mice; settings: for inhibition in vivo at 20 mg/kg: Mus musculus
How it was run: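 Female 6-week-old BALB/c nu/nu mice carried orthotopic rectal HCT116 implants, n=4 per group. Dosing began at 50–60 mm^3: 20 mg/kg p.o. once daily in 80% saline/10% DMAC/10% Tween 80, with vehicle controls. Caliper tumor volume and body weight were tracked, and TGI is expressed as a percentage.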

GAPDH = GAPDH expression level (internal control) in western blot, HCT116 cells; assay type: cell-based, human; settings: HCT116, hypoxia 1% O2, 0-30 μM, 12 hours, FIG. 1
Protocol: (§1) First, HCT116 human colon cancer cells (ATCC #CCL-247) were plated at the concentration of 2×10^5 cells/ml. After 24 hours, the cells were incubated under hypoxia (1% O2, 94% N2, and 5% CO2, expressed as 1% O2 in FIG. 1) for 4 hours in order to induce HIF-la accumulation. Cells were treated with the compounds at various concentrations (0, 3, 10, 20, and 30 μM) for 12 hours under hypoxia. The cells were then harvested, and lysed in RIPA buffer to obtain nuclear extracts. Cells grown at 20% O2 (normoxia) were used as control groups to compare HIF-1α-mediated gene expression under each condition. 30 μg of the nuclear extracts per sample was separated by SDS-PAGE (sodium dodecyl sulfate-polyacrylamide gel electrophoresis), and was then transferred to PVDF (polyvinylidene fluoride membrane) membranes. After membranes were probed with HIF-1α antibodies (R&D System), HIF-1α proteins were detected with HRP-conjugated secondary antibodies (Amersham-Pharmacia). GAPDH (Glyceraldehyde 3-phosphate dehydrogenase) was used as an internal control for loading in western blot analysis.

HIF-1α = molecular target: T1, HIF-1α (Homo sapiens, UniProt Q16665); test: Inhibition of hypoxia-induced HIF-1α accumulation, western blot in HCT116 cells; assay type: cell-based; settings: HCT116, hypoxia 1% O2, 0-30 μM, 12 hours, FIG. 1
T1 construct: endogenous in cells; host or cells: HCT116 human colon cancer cells (ATCC #CCL-247)
T1 sequence (Q16665 whole entry): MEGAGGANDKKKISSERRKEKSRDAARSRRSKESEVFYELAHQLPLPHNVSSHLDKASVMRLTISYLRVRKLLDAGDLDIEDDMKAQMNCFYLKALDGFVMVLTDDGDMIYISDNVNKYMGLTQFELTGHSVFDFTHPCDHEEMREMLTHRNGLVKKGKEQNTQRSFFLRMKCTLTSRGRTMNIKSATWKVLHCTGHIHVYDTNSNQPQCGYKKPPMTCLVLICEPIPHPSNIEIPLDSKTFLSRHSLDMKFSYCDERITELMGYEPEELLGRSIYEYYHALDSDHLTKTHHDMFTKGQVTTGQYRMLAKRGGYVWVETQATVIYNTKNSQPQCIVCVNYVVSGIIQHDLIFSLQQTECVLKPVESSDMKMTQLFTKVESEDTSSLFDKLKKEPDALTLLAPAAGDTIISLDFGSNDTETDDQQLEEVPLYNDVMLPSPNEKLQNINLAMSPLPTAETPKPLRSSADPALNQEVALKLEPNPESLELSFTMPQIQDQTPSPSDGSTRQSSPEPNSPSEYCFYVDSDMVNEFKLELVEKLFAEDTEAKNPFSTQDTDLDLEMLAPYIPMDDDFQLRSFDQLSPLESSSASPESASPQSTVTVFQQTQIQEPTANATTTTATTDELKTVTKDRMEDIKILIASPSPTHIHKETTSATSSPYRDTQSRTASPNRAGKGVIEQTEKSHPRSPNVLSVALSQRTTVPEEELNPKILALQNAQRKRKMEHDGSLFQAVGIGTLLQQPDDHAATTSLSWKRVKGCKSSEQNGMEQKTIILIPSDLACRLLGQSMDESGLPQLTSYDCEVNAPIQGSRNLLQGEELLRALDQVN
Protocol: <Experiment 2> In Vitro Studies for Inhibition of Hypoxia-Induced HIF-1α Accumulation
Inhibition of HIF-1α accumulation by the compounds according to the present invention was determined in HCT116 human colon cancer cells. In particular, western blot analysis was used to identify the compounds, I-3, I-6, I-8, I-16, I-19, I-22˜I-24, and I-27˜I-36, which inhibited HIF-1α accumulation under hypoxia.
as §1

[2] = test system: HIF-1α-mediated HRE transcriptional activity; test: Assay for inhibition of HIF-1α-mediated transcriptional activity (HRE reporter assay); assay type: cell-based, human; settings: Homo sapiens, HCT-116, HCT116 cells, 12 hours under hypoxia (1% O2), read-out: Inhibitory activity against HIF-1α (10 μM)
How it was run: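 HCT116 human colon cancer cells co-transfected with pGL3 luciferase reporter carrying six HRE copies from human VEGF plus Renilla control, then treated with 0–20 μM compound for 12 h under hypoxia (1% O2). Inhibition taken from dual-luciferase reporter activity in lysates.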

[3] = test system: Chick embryo chorioallantoic membrane; test: CAM (chick embryo chorioallantoic membrane) assay; assay type: in vivo; settings: 10-20 μg on coverslip, 2 days, FIG. 2
Protocol: CAM (Chick embryo chorioallantoic membrane) assay was conducted as an in vivo model to determine whether the compounds according to the present invention, I-3, I-6, I-19, and I-22, had anti-angiogenic effects or not. DMSO-treated groups were used as negative controls.
According to the present invention, CAM assay was performed as follows.
Fertilized eggs were incubated periodically rolling at 37° C. with 50% humidity for 2-3 days. When eggs were erected, approximately 3 ml of albumin was extracted from the sharp edge of the eggs using a syringe. The hole of the eggs was sealed with a tape to prevent from dryness and contamination, and the hole of the eggs was put down and incubated for 2 to 3 days. After punching a hole with 1.5 cm diameter in the round part of eggs, opaque membrane was removed carefully. The compounds (10-20 μg) according to the present invention were placed and spread on thermanox coverslip equally to dry, and then the hole in the round part of eggs put on the upper part of the fertilized eggs that vessels grew. The eggs were examined under the dissecting microscope and the results were given in FIG. 2, after covering the hole with a coverglass to protect it from contamination for 2 days.

[4] = Body weight change and side effects during 14 days of oral treatment in nude mice; assay type: in vivo, BALB/c nu/nu mice
How it was run: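 Female 6-week-old BALB/c nu/nu mice carrying rectally implanted HCT116 colon tumours (50˜60 mm^3 at start), 4 per group. Compounds at 20 mg/kg in saline/10% DMAC/10% Tween 80 given orally once daily; vehicle controls. Body weight and side effects monitored over 14 days.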

[5] = day 3, 20 mg/kg oral once a day
[6] = day 5, 20 mg/kg oral once a day
[7] = day 7, 20 mg/kg oral once a day
[8] = day 10, 20 mg/kg oral once a day
[9] = day 12, 20 mg/kg oral once a day
[10] = day 14, 20 mg/kg oral once a day

## C[N+](C)(C)CCNC(=O)CCOc1ccc(C23CC4CC(CC(C4)C2)C3)cc1.[I-] [Compound I-19, 2-(3-(4-(Adamantan-1-yl)phenoxy)propanamido)-N,N,N-trimethylethanaminium iodide]
[1]; 20 mg/kg oral once a day, 14 days
  inhibitory effects on tumor growth (TGI results): significant inhibitory effects on tumor growth
[1]; HCT-116, 72 h, day 3, 20 mg/kg oral once a day, read-out: TGI (tumor growth inhibition), tumor volume
  inhibition in vivo at 20 mg/kg: 34.1%
[1]; HCT-116, 120 h, day 5, 20 mg/kg oral once a day, read-out: TGI (tumor growth inhibition), tumor volume
  inhibition in vivo at 20 mg/kg: 36.4%
[1]; HCT-116, 168 h, day 7, 20 mg/kg oral once a day, read-out: TGI (tumor growth inhibition), tumor volume
  inhibition in vivo at 20 mg/kg: 36.8%
[1]; HCT-116, 240 h, day 10, 20 mg/kg oral once a day, read-out: TGI (tumor growth inhibition), tumor volume
  inhibition in vivo at 20 mg/kg: 37.7%
[1]; HCT-116, 288 h, day 12, 20 mg/kg oral once a day, read-out: TGI (tumor growth inhibition), tumor volume
  inhibition in vivo at 20 mg/kg: 37.8%
[1]; HCT-116, 336 h, day 14, 20 mg/kg oral once a day, read-out: TGI (tumor growth inhibition), tumor volume
  inhibition in vivo at 20 mg/kg: 39.2%
[1]; HCT-116, 336 h, day 14, 20 mg/kg oral once a day, read-out: TGI (tumor growth inhibition), tumor weight
  inhibition in vivo at 20 mg/kg: 41.3%
[1]; [5]
  Tumor volume: 22.4 ± 5.6 mm^3
[1]; [6]
  Tumor volume: 58.8 ± 11.3 mm^3
[1]; [7]
  Tumor volume: 110.4 ± 11.2 mm^3
[1]; [8]
  Tumor volume: 162.3 ± 10.1 mm^3
[1]; [9]
  Tumor volume: 278.8 ± 35.0 mm^3
[1]; [10]
  Tumor volume: 404.7 ± 17.6 mm^3
  Tumor weight: 1392.4 ± 153.0 mg
GAPDH
  GAPDH expression levels: did not affect GAPDH expression levels
HIF-1α
  HIF-1α degradation: promoted HIF-1α degradation
  inhibitory effects on HIF-1α accumulation: significant inhibitory effects on HIF-1α accumulation
[2]
  inhibition at 10 µM: 26 to 50%
[3]
  formation of vessels (anti-angiogenic effect): inhibited formation of vessels
[4]; day 0, 20 mg/kg oral once a day
  Body weight change: 100.0 ± 0.0%
[4]; [5]
  Body weight change: 104.0 ± 1.6%
[4]; [6]
  Body weight change: 104.7 ± 3.1%
[4]; [7]
  Body weight change: 104.6 ± 4.0%
[4]; [8]
  Body weight change: 105.1 ± 4.3%
[4]; [9]
  Body weight change: 103.4 ± 3.5%
[4]; [10]
  Body weight change: 102.2 ± 3.8%
